# In patent US11020398B2, “Amino-pyrrolopyrimidinone compounds and methods of use thereof” (ArQule, Inc., priority 2016, dated 2021):
# Assays:
# [1] = biological target: full-length activated BTK (wildtype) (Homo sapiens (Human), UniProt Q06187); test: AlphaScreen assay, wild-type BTK; assay type: biochemical; settings: for inhibition at 10 µM: read-out: BTK % @ 10 uM, @ 10 uM
# Description: (§1) The activated BTK was frozen in 50 μl aliquots (125-150 μg/ml).
# (§2) BTK activity was assayed using a PLCγ2-derived biotinylated peptide substrate (biotin-[…]-OH) and AlphaScreen™ (Amplified Luminescent Proximity Homogeneous Assay) technology. The extent of peptide phosphorylation was determined by using acceptor beads conjugated to phosphotyrosine antibody that recognized the phosphorylated peptide and donor beads conjugated to streptavidin that binds to the biotin on the peptide. Excitation of the donor beads converted ambient oxygen to excited singlet oxygen which when in close proximity to acceptor beads, reacted with acceptor beads resulting in signal amplification.
# (§3) Test inhibitors and controls were prepared in 10% DMSO at 10-fold the desired final concentration and added to each well of a reaction plate (Corning 96-well half-area solid white nonbinding surface plate) in a volume of 2.5 μl. […] The plate was incubated for 120 min at room temperature and the reaction stopped by the addition of 10 μl stop/detection mixture containing 35 mM EDTA, 50 ug/ml AlphaScreen™ Streptavidin Donor beads (final concentration is 500 ng/well) and AlphaScreen™ Phospho-tyrosine (P-Tyr-100) Acceptor beads (final concentration is 500 ng/well) under green light conditions. The plate was incubated overnight at room temperature in the dark and the plates read on the BMG PolarStar Omega ([…], Gain=4000). Data were archived and analyzed with a 4-parameter fit to generate IC50 values using the CDD Vault from Collaborative Drug Discovery.
# [2] = biological target: full-length activated BTK mutant C481S (Homo sapiens (Human), UniProt Q06187, C481S); test: AlphaScreen assay, BTK mutant C481S; assay type: biochemical; settings: for inhibition at 10 µM: read-out: BTK-C481S % @ 10 uM, @ 10 uM
# full-length activated BTK mutant C481S, sequence (Q06187 whole entry C481S): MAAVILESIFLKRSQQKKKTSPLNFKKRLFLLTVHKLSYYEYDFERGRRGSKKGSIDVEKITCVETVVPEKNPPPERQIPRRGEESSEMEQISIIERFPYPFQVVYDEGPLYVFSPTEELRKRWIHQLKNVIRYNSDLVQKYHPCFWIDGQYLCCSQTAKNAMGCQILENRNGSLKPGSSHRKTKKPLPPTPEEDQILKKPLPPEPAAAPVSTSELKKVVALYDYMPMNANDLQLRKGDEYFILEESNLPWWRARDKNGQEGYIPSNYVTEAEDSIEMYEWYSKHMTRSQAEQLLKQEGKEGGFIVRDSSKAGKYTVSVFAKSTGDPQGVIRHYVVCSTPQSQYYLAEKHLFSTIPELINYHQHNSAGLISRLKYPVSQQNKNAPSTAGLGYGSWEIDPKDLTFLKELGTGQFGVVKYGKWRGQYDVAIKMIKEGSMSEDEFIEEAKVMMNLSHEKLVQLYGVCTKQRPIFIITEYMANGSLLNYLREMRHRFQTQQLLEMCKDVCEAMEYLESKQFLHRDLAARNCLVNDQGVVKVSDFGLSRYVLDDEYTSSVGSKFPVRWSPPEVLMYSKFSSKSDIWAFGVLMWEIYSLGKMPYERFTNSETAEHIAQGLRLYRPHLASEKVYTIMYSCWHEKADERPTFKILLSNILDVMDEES
# Description: as §1, §2, §3
# full-length activated BTK (wildtype), sequence (Q06187 whole entry): as the sequence (Q06187 whole entry C481S) above, with S481C counted along it
SMILES,IC50 [1],inhibition at 10 µM [2],inhibition at 10 µM [1],IC50 [2]
"CN1CCN(C(=O)c2ccc(Cl)c(C(=O)c3c[nH]c4ncnc(N[C@@H]5CC[C@@H](CO)OC5)c34)c2)CC1 [Compound I-622, (4-chloro-3-(4-(((3R,6S)-6-(hydroxymethyl)tetrahydro-2H-pyran-3-yl)amino)-7H-pyrrolo[2,3-d]pyrimidine-5-carbonyl)phenyl)(4-methylpiperazin-1-yl)methanone]",847 nM,62%,–,–
"O=C(NCCN1CCOCC1)c1ccc(C(=O)c2c[nH]c3ncnc(N[C@@H]4CC[C@@H](CO)OC4)c23)c(Cl)c1 [Compound I-613, 3-chloro-4-(4-(((3R,6S)-6-(hydroxymethyl)tetrahydro-2H-pyran-3-yl)amino)-7H-pyrrolo[2,3-d]pyrimidine-5-carbonyl)-N-(2-morpholinoethyl) benzamide]",–,64%,87%,–
"CN1C[C@H](CNc2ncnc3[nH]cc(C(=O)c4ccc(Oc5ccccc5)cc4Cl)c23)C[C@H]1CO [Compound I-370e, (2-chloro-4-phenoxyphenyl)(4-((((3S,5S)-5-(hydroxymethyl)-1-methylpyrrolidin-3-yl)methyl)amino)-7H-pyrrolo[2,3-d]pyrimidin-5-yl)methanone]",59.5 nM,–,–,49.8 nM
"O=C(Nc1ccccc1)c1ccc(C(=O)c2c[nH]c3ncnc(N[C@@H]4CC[C@@H](CO)OC4)c23)cc1 [Compound I-231, 4-(4-(((3R,6S)-6-(hydroxymethyl)tetrahydro-2H-pyran-3-yl)amino)-7H-pyrrolo[2,3-d]pyrimidine-5-carbonyl)-N-phenylbenzamide]",318 nM,–,–,248 nM
"O=C(c1ccc(N2CCOCC2)cc1Cl)c1c[nH]c2ncnc(N[C@@H]3CC[C@@H](CO)OC3)c12 [Compound I-311i, (2-chloro-4-morpholinophenyl)(4-(((3R,6S)-6-(hydroxymethyl)tetrahydro-2H-pyran-3-yl)amino)-7H-pyrrolo[2,3-d]pyrimidin-5-yl)methanone]",867 nM,81%,–,–
"O=C(Nc1ccc(Cl)c(C(=O)c2c[nH]c3ncnc(N[C@@H]4CC[C@@H](CO)OC4)c23)c1)c1nccc2ccccc12 [Compound I-607, N-(4-chloro-3-(4-(((3R,6S)-6-(hydroxymethyl)tetrahydro-2H-pyran-3-yl)amino)-7H-pyrrolo[2,3-d]pyrimidine-5-carbonyl)phenyl)isoquinoline-1-carboxamide]",13.8 nM,–,–,216 nM
"COCCNC(=O)c1ccc(C(=O)c2c[nH]c3ncnc(N[C@@H]4CC[C@@H](CO)OC4)c23)c(Cl)c1 [Compound I-610, 3-chloro-4-(4-(((3R,6S)-6-(hydroxymethyl)tetrahydro-2H-pyran-3-yl)amino)-7H-pyrrolo[2,3-d]pyrimidine-5-carbonyl)-N-(2-methoxyethyl) benzamide]",491 nM,–,–,1150 nM
"O=C(Nc1ccncc1)c1ccc(C(=O)c2c[nH]c3ncnc(N[C@@H]4CC[C@@H](CO)OC4)c23)c(Cl)c1 [Compound I-246, 3-chloro-4-(4-(((3R,6S)-6-(hydroxymethyl)tetrahydro-2H-pyran-3-yl)amino)-7H-pyrrolo[2,3-d]pyrimidine-5-carbonyl)-N-(pyridin-4-yl)benzamide]",103 nM,–,–,514 nM
"O=C(c1cc(C(=O)N2CCOCC2)ccc1Cl)c1c[nH]c2ncnc(N[C@@H]3CC[C@@H](CO)OC3)c12 [Compound I-612, (4-chloro-3-(4-(((3R,6S)-6-(hydroxymethyl)tetrahydro-2H-pyran-3-yl)amino)-7H-pyrrolo[2,3-d]pyrimidine-5-carbonyl)phenyl)(morpholino) methanone]",1630 nM,82%,–,–
"O=C(c1ccc(C(=O)N2CCOCC2)cc1Cl)c1c[nH]c2ncnc(N[C@@H]3CC[C@@H](CO)OC3)c12 [Compound I-611, (3-chloro-4-(4-(((3R,6S)-6-(hydroxymethyl)tetrahydro-2H-pyran-3-yl)amino)-7H-pyrrolo[2,3-d]pyrimidine-5-carbonyl)phenyl)(morpholino) methanone]",1140 nM,–,–,1510 nM

# The next lines start with the values.
IC50 [1],inhibition at 10 µM [2],inhibition at 10 µM [1],IC50 [2],SMILES
10 nM,–,–,38.8 nM,"CS(=O)(=O)N1CC(Nc2ncnc3[nH]cc(C(=O)c4ccc(Oc5ccccc5)cc4Cl)c23)CCC1CO (racemic) [Compound I-653, (racemic)-(2-chloro-4-phenoxyphenyl)(4-((6-(hydroxymethyl)-1-(methylsulfonyl)piperidin-3-yl)amino)-7H-pyrrolo[2,3-d]pyrimidin-5-yl)methanone]"
–,41%,62%,–,"COCCNC(=O)c1ccc(C(=O)c2c[nH]c3ncnc(N[C@@H]4CC[C@@H](CO)OC4)c23)cc1 [Compound I-636, 4-(4-(((3R,6S)-6-(hydroxymethyl)tetrahydro-2H-pyran-3-yl)amino)-7H-pyrrolo[2,3-d]pyrimidine-5-carbonyl)-N-(2-methoxyethyl)benzamide]"
236 nM,–,–,832 nM,"O=C(c1ccc(Oc2ccccc2)cc1Cl)c1c[nH]c2ncnc(NC[C@@H]3C[C@@H](CO)N(Cc4ccccc4)C3)c12 [Compound I-657, (4-((((3S,5S)-1-benzyl-5-(hydroxymethyl)pyrrolidin-3-yl)methyl)amino)-7H-pyrrolo[2,3-d]pyrimidin-5-yl)(2-chloro-4-phenoxyphenyl)methanone]"
177 nM,–,–,497 nM,"COc1ccccc1C(=O)NCc1ccc(C(=O)c2c[nH]c3ncnc(N[C@@H]4CC[C@@H](CO)OC4)c23)cc1 [Compound I-652, N-(4-(4-(((3R,6S)-6-(hydroxymethyl)tetrahydro-2H-pyran-3-yl)amino)-7H-pyrrolo[2,3-d]pyrimidine-5-carbonyl)benzyl)-2-methoxybenzamide]"
–,49%,73%,–,"O=C(c1cccc(C(=O)N2CCOCC2)c1)c1c[nH]c2ncnc(N[C@@H]3CC[C@@H](CO)OC3)c12 [Compound I-635, (4-(((3R,6S)-6-(hydroxymethyl)tetrahydro-2H-pyran-3-yl)amino)-7H-pyrrolo[2,3-d]pyrimidin-5-yl)(3-(morpholine-4-carbonyl)phenyl) methanone]"
89.5 nM,–,–,804 nM,"Cn1cc(NC(=O)c2ccc(Cl)c(C(=O)c3c[nH]c4ncnc(N[C@@H]5CC[C@@H](CO)OC5)c34)c2)cn1 [Compound I-629, 4-chloro-3-(4-(((3R,6S)-6-(hydroxymethyl)tetrahydro-2H-pyran-3-yl)amino)-7H-pyrrolo[2,3-d]pyrimidine-5-carbonyl)-N-(1-methyl-1H-pyrazol-4-yl)benzamide]"
332 nM,–,–,230 nM,"CNC(=O)c1ccc(Oc2ccc(C(=O)c3c[nH]c4ncnc(N[C@@H]5CC[C@@H](CO)OC5)c34)c(Cl)c2)cn1 [Compound I-651, 5-(3-chloro-4-(4-(((3R,6S)-6-(hydroxymethyl)tetrahydro-2H-pyran-3-yl)amino)-7H-pyrrolo[2,3-d]pyrimidine-5-carbonyl)phenoxy)-N-methyl picolinamide]"
44.5 nM,–,–,52 nM,"CC(=O)N1C[C@H](Nc2ncnc3[nH]cc(C(=O)c4ccc(Oc5ccccc5)cc4Cl)c23)C[C@H]1CO [Compound I-655, 1-((2S,4R)-4-((5-(2-chloro-4-phenoxybenzoyl)-7H-pyrrolo[2,3-d]pyrimidin-4-yl)amino)-2-(hydroxymethyl)pyrrolidin-1-yl)ethan-1-one]"
